Measurements: patent publication US11702422B2, “Imidazopyridazines as modulators of IL-17” (Janssen Pharmaceutica NV, priority 2020, dated 2023)

Columns and labels:
[1] = tested on: IL-17A-induced G-CSF production in human normal keratinocyte (NHK); test: NHK Assay: IL-17A-induced G-CSF production in human normal keratinocytes; format: cell-based; details: 24 h, adult normal human keratinocytes, IL-17A 5 ng/mL, simple average if tested more than once
Method in brief: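 Inhibition of IL-17A-driven G-CSF release is measured in adult keratinocytes stimulated for 24 h at 37° C with 5 ng/mL human IL-17A that had been pre-incubated with compound for 1 h. IC50 comes from HTRF G-CSF levels; cell viability is checked in parallel by luminescent ATP assay.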

[2] = target: IL-17A(FLAG-Tagged): IL-17RA(His-Tagged) (Homo sapiens, UniProt Q16552, K93Q); test: IL-17A(FLAG-Tagged): IL-17RA(His-Tagged) Binding Disruption Eu-HTRF Assay; details: IL-17A/IL-17RA binding disruption, simple average if tested more than once
Method in brief: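 IC50 comes from a one-site competition fit of the HTRF 665/620 nm ratio. Compound dilutions (2-fold, 22 points) were held 1 h rt with FLAG-tagged IL-17A dimer, then His-tagged IL-17RA plus Eu-cryptate anti-FLAG and D2 anti-His antibodies were added for 2 h rt.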

Sequence of UniProt Q16552 (Q16552 with tags, fused parts or gaps K93Q): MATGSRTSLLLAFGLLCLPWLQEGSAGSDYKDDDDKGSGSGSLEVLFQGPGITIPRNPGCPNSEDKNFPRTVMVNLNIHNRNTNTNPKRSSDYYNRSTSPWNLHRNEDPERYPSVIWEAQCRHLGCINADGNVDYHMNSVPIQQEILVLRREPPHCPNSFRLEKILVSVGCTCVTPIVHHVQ

IC50 [2] | SMILES | IC50 ([1]; Homo sapiens, Keratinocyte) | IC50 [1]
36 nM | Cc1nonc1C(=O)N[C@H](c1cn2ncc([C@H](NC(=O)CCC(F)(F)F)C3CC3)cc2n1)C1CCC(F)(F)CC1 [Example 157, N—((S)-(7-((R)-Cyclopropyl(4,4,4-trifluorobutanamido)methyl)imidazo[1,2-b]pyridazin-2-yl)(4,4-difluorocyclohexyl)methyl)-4-methyl-1,2,5-oxadiazole-3-carboxamide] | 150 nM | –
660 nM | CCC(NC(=O)CC1CC(F)(F)C1)c1cnn2cc([C@@H](NC(=O)c3ccnn3C(C)C)C3CCC(F)(F)CC3)nc2c1 (single isomer, unassigned) [Example 520, N—((S)-(7-((S*)-1-(2-(3,3-Difluorocyclobutyl)acetamido)propyl)imidazo[1,2-b]pyridazin-2-yl)(4,4-difluorocyclohexyl)methyl)-1-isopropyl-1H-pyrazole-5-carboxamide] | 5000 nM | –
100 nM | O=C(CCC(F)(F)F)N[C@@H](c1cnn2cc([C@@H](NC(=O)c3cnn(CC4CC(F)(F)C4(F)F)n3)C3CCC(F)(F)CC3)nc2c1)C1CC1 (stereo partly drawn) [Example 95, N—((S)-(7-((R)-Cyclopropyl(4,4,4-trifluorobutanamido)methyl)imidazo[1,2-b]pyridazin-2-yl)(4,4-difluorocyclohexyl)methyl)-2-((2,2,3,3-tetrafluorocyclobutyl)methyl)-2H-1,2,3-triazole-4-carboxamide] | 260 nM | –
170 nM | CCC(CC(=O)N[C@@H](c1cnn2cc([C@@H](NC(=O)c3nonc3C)C3CCC(F)(F)CC3)nc2c1)C1CC1)CC(F)(F)F (single isomer, unassigned) [Example 343, N—((S)-(7-((R)-Cyclopropyl((S*)-3-ethyl-5,5,5-trifluoropentanamido)methyl)imidazo[1,2-b]pyridazin-2-yl)(4,4-difluorocyclohexyl)methyl)-4-methyl-1,2,5-oxadiazole-3-carboxamide] | – | 430 nM
190 nM | O=C(CCC(F)(F)F)N[C@@H](c1cnn2cc([C@@H](NC(=O)c3ncnn3CC(F)(F)F)C3CCC(F)(F)CC3)nc2c1)C1CC1 [Example 61, N—((S)-(7-((R)-Cyclopropyl(4,4,4-trifluorobutanamido)methyl)imidazo[1,2-b]pyridazin-2-yl)(4,4-difluorocyclohexyl)methyl)-1-(2,2,2-trifluoroethyl)-1H-1,2,4-triazole-5-carboxamide] | 1200 nM | –
150 nM | CC(C)c1cc(C(=O)N[C@H](c2cn3ncc([C@H](NC(=O)CCC(F)(F)F)C4CC4)cc3n2)C2CCC(F)(F)CC2)ncn1 [Example 162, N—((S)-(7-((R)-Cyclopropyl(4,4,4-trifluorobutanamido)methyl)imidazo[1,2-b]pyridazin-2-yl)(4,4-difluorocyclohexyl)methyl)-6-isopropylpyrimidine-4-carboxamide] | 940 nM | –
36 nM | CC(C)c1nonc1C(=O)N[C@H](c1cn2ncc([C@H](NC(=O)CC34CC(F)(C3)C4)C3CC3)cc2n1)C1CCC(F)(F)CC1 [Example 279, N—((S)-(7-((R)-Cyclopropyl(2-(3-fluorobicyclo[1.1.1]pentan-1-yl)acetamido)methyl)imidazo[1,2-b]pyridazin-2-yl)(4,4-difluorocyclohexyl)methyl)-4-isopropyl-1,2,5-oxadiazole-3-carboxamide] | 64 nM | –
320 nM | CCOCC(NC(=O)CC1CC(F)(F)C1)c1cnn2cc([C@@H](NC(=O)c3nonc3C3CC3)C3CCC(F)(F)CC3)nc2c1 (single isomer, unassigned) [Example 526, 4-Cyclopropyl-N—((S)-(7-((S*)-1-(2-(3,3-difluorocyclobutyl)acetamido)-2-ethoxyethyl)imidazo[1,2-b]pyridazin-2-yl)(4,4-difluorocyclohexyl)methyl)-1,2,5-oxadiazole-3-carboxamide] | – | 1200 nM
38 nM | O=C(CCC(F)(F)F)N[C@@H](c1cnn2cc([C@@H](NC(=O)c3cccc(OCC(F)F)c3)C3CCC(F)(F)CC3)nc2c1)C1CC1 [Example 168, N—((S)-(7-((R)-Cyclopropyl(4,4,4-trifluorobutanamido)methyl)imidazo[1,2-b]pyridazin-2-yl)(4,4-difluorocyclohexyl)methyl)-3-(2,2-difluoroethoxy)benzamide] | 190 nM | –
580 nM | O=C(CCC(F)(F)F)N[C@@H](c1cnn2cc([C@@H](NC(=O)c3ccncc3F)C3CCC(F)(F)CC3)nc2c1)C1CC1 [Example 195, N—((S)-(7-((R)-Cyclopropyl(4,4,4-trifluorobutanamido)methyl)imidazo[1,2-b]pyridazin-2-yl)(4,4-difluorocyclohexyl)methyl)-3-fluoroisonicotinamide] | 1600 nM | –
55 nM | Cc1nocc1C(=O)N[C@H](c1cn2ncc([C@H](NC(=O)CC(C)C(F)(F)F)C3CC3)cc2n1)C1CCC(F)(F)CC1 (single isomer, unassigned) [Example 123, N—((S)-(7-((R)-Cyclopropyl((R*)-4,4,4-trifluoro-3-methylbutanamido)methyl)imidazo[1,2-b]pyridazin-2-yl)(4,4-difluorocyclohexyl)methyl)-3-methylisoxazole-4-carboxamide] | – | 130 nM
470 nM | Cc1nonc1C(=O)N[C@H](c1cn2ncc([C@H](NC(=O)C(C)CC(F)(F)F)C3CC3)cc2n1)C1CCC(F)(F)CC1 (single isomer, unassigned) [Example 347, N—((S)-(7-((R)-Cyclopropyl((S*)-4,4,4-trifluoro-2-methylbutanamido)methyl)imidazo[1,2-b]pyridazin-2-yl)(4,4-difluorocyclohexyl)methyl)-4-methyl-1,2,5-oxadiazole-3-carboxamide] | – | 1600 nM
50 nM | O=C(CCC(F)(F)F)N[C@@H](c1cnn2cc([C@@H](NC(=O)c3conc3CCC(F)(F)F)C3CCC(F)(F)CC3)nc2c1)C1CC1 [Example 77, N—((S)-(7-((R)-Cyclopropyl(4,4,4-trifluorobutanamido)methyl)imidazo[1,2-b]pyridazin-2-yl)(4,4-difluorocyclohexyl)methyl)-3-(3,3,3-trifluoropropyl)isoxazole-4-carboxamide] | 60 nM | –
340 nM | CC(C)n1nccc1C(=O)N[C@H](c1cn2ncc(C(NC(=O)CC3CC(F)(F)C3)C3(C#N)CC3)cc2n1)C1CCC(F)(F)CC1 (single isomer, unassigned) [Example 426, N—((S)-(7-((S*)-(1-Cyanocyclopropyl)(2-(3,3-difluorocyclobutyl)acetamido)methyl)imidazo[1,2-b]pyridazin-2-yl)(4,4-difluorocyclohexyl)methyl)-1-isopropyl-1H-pyrazole-5-carboxamide] | – | 100 nM
320 nM | Cc1c(C(=O)N[C@H](c2cn3ncc(C(NC(=O)CCC(F)(F)F)C4CC4)cc3n2)C2CCC(F)(F)CC2)cnn1CCC(F)(F)F (single isomer, unassigned) [Example 54, N—((S)-(7-((R*)-Cyclopropyl(4,4,4-trifluorobutanamido)methyl)imidazo[1,2-b]pyridazin-2-yl)(4,4-difluorocyclohexyl)methyl)-5-methyl-1-(3,3,3-trifluoropropyl)-1H-pyrazole-4-carboxamide] | – | 710 nM
1200 nM | O=C(CCC(F)(F)F)N[C@@H](c1cnn2cc([C@@H](NC(=O)[C@@H]3C[C@@H]3CF)C3CCC(F)(F)CC3)nc2c1)C1CC1 (relative stereo) [Example 365, (1R*,2S*)—N—((S)-(7-((R*)-Cyclopropyl(4,4,4-trifluorobutanamido)methyl)imidazo[1,2-b]pyridazin-2-yl)(4,4-difluorocyclohexyl)methyl)-2-(fluoromethyl)cyclopropane-1-carboxamide] | > 20000 nM | –
1500 nM | O=C(CCC(F)(F)F)N[C@@H](c1cnn2cc([C@@H](NC(=O)[C@@H]3C[C@H]3F)C3CCC(F)(F)CC3)nc2c1)C1CC1 [Example 90, (1S,2R)—N—((S)-(7-((R)-Cyclopropyl(4,4,4-trifluorobutanamido)methyl)imidazo[1,2-b]pyridazin-2-yl)(4,4-difluorocyclohexyl)methyl)-2-fluorocyclopropane-1-carboxamide] | ~20000 nM | –
1300 nM | COc1cc(C(=O)N[C@H](c2cn3ncc([C@H](NC(=O)CCC(F)(F)F)C4CC4)cc3n2)C2CCC(F)(F)CC2)cnn1 [Example 459, N—((S)-(7-((R)-Cyclopropyl(4,4,4-trifluorobutanamido)methyl)imidazo[1,2-b]pyridazin-2-yl)(4,4-difluorocyclohexyl)methyl)-6-methoxypyridazine-4-carboxamide] | > 20000 nM | –
120 nM | [2H]C([2H])([2H])C([2H])([2H])n1nccc1C(=O)N[C@H](c1cn2ncc([C@H](NC(=O)C[C@@H](C)C(F)(F)F)C3CCC3)cc2n1)C1CCC(F)(F)CC1 (relative stereo) [Example 501, N—((S)-(7-((R*)-Cyclobutyl((R*)-4,4,4-trifluoro-3-methylbutanamido)methyl)imidazo[1,2-b]pyridazin-2-yl)(4,4-difluorocyclohexyl)methyl)-1-(ethyl-d5)-1H-pyrazole-5-carboxamide] | 95 nM | –
100 nM | O=C(CCC(F)(F)F)NC(c1cnn2cc([C@@H](NC(=O)c3cnn(CC(F)(F)F)n3)C3CCC(F)(F)CC3)nc2c1)C1CC1 (single isomer, unassigned) [Example 27, N—((S)-(7-((R*)-Cyclopropyl(4,4,4-trifluorobutanamido)methyl)imidazo[1,2-b]pyridazin-2-yl)(4,4-difluorocyclohexyl)methyl)-2-(2,2,2-trifluoroethyl)-2H-1,2,3-triazole-4-carboxamide] | 650 nM | –
